Data published in patent US9510598B2, “Nitrogen-containing heterocyclic compounds for plant disease control” (BAYER CROPSCIENCE AG, priority 2012, dated 2016).

Test system: not given
Assay: not given
Type: physicochemical
Details: HPLC on reversed phase columns, method [a]: pH 2.7, 0.1% formic acid in water / acetonitrile, linear gradient 10% to 95% acetonitrile

SMILES	log P
CC(C)c1noc(C(C)NC(=O)C2(C)CC(c3ccc4ncc(Br)cc4c3)=NO2)n1 (centres unmarked) [compound 331]	3.23[a]
C#Cc1cnc2ccc(C3=NOC(C)(C(=O)NC(C)c4sc(C)nc4C)C3)cc2c1 (centres unmarked) [compound 333]	2.20[a]
CCC(NC(=O)C1(C)CC(c2ccc3ncc(Br)cc3c2)=NO1)c1cn(CC)nc1C (centres unmarked) [compound 311]	2.77[a]
C#CCCNC(=O)C1(C)CC(c2ccc3ncc(C#C)cc3c2)=NO1 (racemic) [compound 355]	2.25[a]
C#Cc1cnc2ccc(C3=NOC(C)(C(=O)NC(C)C4CC4)C3)cc2c1 (centres unmarked) [compound 330]	2.78[a]
CC(NC(=O)C1(C)CC(c2ccc3ncc(Br)cc3c2)=NO1)c1ccsc1 (centres unmarked) [compound 295]	3.35[a]
C#Cc1cnc2ccc(C3=NOC(C)(C(=O)NCC[Si](C)(C)C)C3)cc2c1 (centres unmarked) [compound 231]	3.7^[a]
C#Cc1cnc2ccc(C3=NOC(C)(C(=O)NCC4C5CC6CC(C5)CC4C6)C3)cc2c1 (centres unmarked) [compound 250]	4.46^[a]
CCn1cc(CNC(=O)C2(C)CC(c3ccc4ncc(C#N)cc4c3)=NO2)c(C)n1 (centres unmarked) [compound 288]	1.80[a]
CC(C)(C)NC(=O)C1(C)CC(c2ccc3ncc(Br)cc3c2)=NO1 (centres unmarked) [compound 319]	3.39[a]
COCC#CC(C)(C)NC(=O)C1(C)CC(c2ccc3ncc(Br)cc3c2)=NO1 (centres unmarked) [compound 299]	3.19[a]

Other lines, results leading:

log P	SMILES
2.94[a]	C#CC1(C(=O)NCCCOCC)CC(c2ccc3ncc(Br)cc3c2)=NO1 (centres unmarked) [compound 627]
3.50[a]	C#Cc1cnc2ccc(C3=NOC(C)(C(=O)N(OC)C(C)CC)C3)cc2c1 (centres unmarked) [compound 658]
3.51[a]	Cc1cc(C2=NOC(C)(C(=O)NC(C)C)C2)cc2cc(Br)cnc12 (centres unmarked) [compound 573]
3.17[a]	CC(C)NC(=O)C1(C(F)F)CC(c2ccc3ncc(I)cc3c2)=NO1 (centres unmarked) [compound 620]
3.11[a]	C#CC1(C(=O)NC2CCC2)CC(c2ccc3ncc(Br)cc3c2)=NO1 (centres unmarked) [compound 625]
2.26[a]	C#Cc1cnc2ccc(C3=NOC(C)(C(=O)NCC(F)F)C3)cc2c1 (centres unmarked) [compound 652]
3.71[a]	Cc1cc(C2=NOC(C)(C(=O)NC3CCC3)C2)cc2cc(Br)cnc12 (centres unmarked) [compound 579]
2.66[a]	COc1ccc(CNC(=O)C2(C)CC(c3ccc4ncc(Br)cc4c3)=NO2)cn1 (centres unmarked) [compound 679]
2.17[a]	C#Cc1cnc2ccc(C3=NOC(C)(C(=O)NCc4cnn(CC(F)F)c4)C3)cc2c1 (centres unmarked) [compound 647]
2.92[a]	Cc1nn(C2CCC2)cc1CNC(=O)C1(C)CC(c2ccc3ncc(Br)cc3c2)=NO1 (centres unmarked) [compound 633]
2.92[a]	C#Cc1cnc2c(C)cc(C3=NOC(OC)(C(=O)NCC4COC(C)(C)O4)C3)cc2c1 (centres unmarked) [compound 605]
2.30[a]	CC1(C(=O)NCCF)CC(c2ccc3ncc(Br)cc3c2)=NO1 (centres unmarked) [compound 641]
2.62[a]	C#Cc1cnc2c(C)cc(C3=NOC(C)(C(=O)NCc4cn(CC)nc4C)C3)cc2c1 (centres unmarked) [compound 581]

Same assay, conditions: HPLC on reversed phase columns, method [a]: pH 2.7, 0.1% formic acid in water and acetonitrile, linear gradient 10% to 95% acetonitrile

log P	SMILES
2.48[a]	CC1(C(=O)N2CCOCC2)CC(c2ccc3ncc(Br)cc3c2)=NO1 (centres unmarked) [compound 771]
2.13[a]	C#Cc1cnc2ccc(C3=NOC(C)(C(=O)NCc4cncc(F)c4)C3)cc2c1 (centres unmarked) [compound 781]
1.85[a]	C#Cc1cnc2ccc(C3=NOC(OC)(C(=O)NCc4cnccn4)C3)cc2c1 (centres unmarked) [compound 708]
3.27[a]	C#Cc1cnc2ccc(C3=NOC(C)(C(=O)NCC4(C)CCC4)C3)cc2c1 (centres unmarked) [compound 753]
3.09[a]	CC(C)Oc1cc(CNC(=O)C2(C)CC(c3ccc4ncc(Br)cc4c3)=NO2)ccn1 (centres unmarked) [compound 763]
1.59[a]	C#Cc1cnc2ccc(C3=NOC(C)(C(=O)NCc4cncc(OC)c4)C3)cc2c1 (centres unmarked) [compound 696]
1.95[a]	CC1(C(=O)NCc2cncnc2)CC(c2ccc3ncc(Br)cc3c2)=NO1 (centres unmarked) [compound 692]
2.05[a]	C#Cc1cnc2ccc(C3=NOC(C)(C(=O)NCc4ccc(OC)nn4)C3)cc2c1 (centres unmarked) [compound 687]
3.03[a]	COC1(C(=O)NCCC2CC2)CC(c2ccc3ncc(Br)cc3c2)=NO1 (racemic) [compound 822]
1.82[a]	C#Cc1cnc2ccc(C3=NOC(C)(C(=O)NCc4ccc(CC)cn4)C3)cc2c1 (centres unmarked) [compound 747]
2.27[a]	CC1(C(=O)NCc2ccncc2F)CC(c2ccc3ncc(Br)cc3c2)=NO1 (centres unmarked) [compound 811]
2.64[a]	C#CC1(NC(=O)C2(C)CC(c3ccc4ncc(Br)cc4c3)=NO2)CC1 (centres unmarked) [compound 718]
2.73[a]	CC1(C(=O)NCc2cnc(Cl)cn2)CC(c2ccc3ncc(Br)cc3c2)=NO1 (centres unmarked) [compound 790]
2.10[a]	CC1(C(=O)N/C(=N/O)c2cccnc2)CC(c2ccc3ncc(Br)cc3c2)=NO1 (centres unmarked) [compound 741]
1.43[a]	Cc1ccncc1CNC(=O)C1(C)CC(c2ccc3ncc(Br)cc3c2)=NO1 (centres unmarked) [compound 693]
2.37[a]	C#Cc1cnc2ccc(C3=NOC(C)(C(=O)NCc4ccc(OC)nc4)C3)cc2c1 (centres unmarked) [compound 681]
3.06[a]	C#Cc1cnc2ccc(C3=NOC(C)(C(=O)NCc4ccnc(OC(C)CC)c4)C3)cc2c1 (centres unmarked) [compound 760]
1.43[a]	C#Cc1cnc2ccc(C3=NOC(C)(C(=O)NCc4cccnc4N(C)C)C3)cc2c1 (centres unmarked) [compound 808]
2.84[a]	CCn1cc(CNC(=O)C2(C)CC(c3ccc4ncc(Br)cc4c3)=NO2)c(Cl)n1 (centres unmarked) [compound 704]

Same assay, conditions: method [a]: HPLC/LC-MS on reversed phase at pH 2.7, 0.1% formic acid in water / acetonitrile, gradient 10% to 95% acetonitrile

log P	SMILES
4.19[a]	C#Cc1cnc2ccc(C3=NOC(C)(C(=O)NC(C)CCCCCC)C3)cc2c1 (racemic) [compound 367]
3.01[a]	CCn1cc(CNC(=O)C2(CC3CC3)CC(c3ccc4ncc(Br)cc4c3)=NO2)c(C)n1 (racemic) [compound 425]
2.83[a]	CCn1cc(CNC(=O)C2(C[Si](C)(C)C)CC(c3ccc4ncc(Br)cc4c3)=NO2)c(C)n1 (centres unmarked) [compound 413]
2.32[a]	CC1(C(=O)NCc2nccs2)CC(c2ccc3ncc(Br)cc3c2)=NO1 (centres unmarked) [compound 488]
3.73[a]	C#Cc1cnc2ccc(C3=NOC(C)(C(=O)NC(C)CCC(C)C)C3)cc2c1 (racemic) [compound 369]
1.71[a]	CC1(C(=O)NC2=NCCO2)CC(c2ccc3ncc(Br)cc3c2)=NO1 (centres unmarked) [compound 495]

Same assay, conditions: method [a]: HPLC/LC-MS on reversed phase at pH 2.7, 0.1% formic acid in water / acetonitrile, linear gradient 10% to 95% acetonitrile

log P	SMILES
3.21^[a]	CC1(C(=O)NCc2ccccc2)CC(c2ccc3ncc(Br)cc3c2)=NO1 (centres unmarked) [compound 91]
2.46^[a]	CC(C)NC(=O)C1(CF)CC(c2ccc3ncc(Br)cc3c2)=NO1 (centres unmarked) [compound 76]
3.11^[a]	C#Cc1cnc2ccc(C3=NOC(C)(C(=O)NCc4cnn(-c5ccccc5)n4)C3)cc2c1 (centres unmarked) [compound 189]
1.65^[a]	C#Cc1cnc2ccc(C3=NOC(C)(C(=O)NCC4CCC(=O)N4C)C3)cc2c1 (centres unmarked) [compound 213]
3.61^[a]	C#Cc1cnc2ccc(C3=NOC(C)(C(=O)NCC4CCC(C(F)(F)F)CC4)C3)cc2c1 (centres unmarked) [compound 121]
3.87^[a]	CC(C)NC(=O)C1(Cc2ccccc2)CC(c2ccc3ncc(Br)cc3c2)=NO1 (centres unmarked) [compound 57]
3.68^[a]	CC1(C(=O)NCCc2ccc(Cl)cc2)CC(c2ccc3ncc(Br)cc3c2)=NO1 (centres unmarked) [compound 111]
3.85^[a]	CC1(C(=O)NCc2cccc3ccccc23)CC(c2ccc3ncc(Br)cc3c2)=NO1 (centres unmarked) [compound 224]
1.41^[a]	CC1(C(=O)NCc2cccnc2)CC(c2ccc3ncc(Br)cc3c2)=NO1 (centres unmarked) [compound 92]
2.12^[a]	CC(C)NC(=O)C1(C)CC(c2ccc3ncc(C#N)cc3c2)=NO1 (centres unmarked) [compound 79]

Same assay, conditions: pH 2.7

chromatographic logP	SMILES
3.06	CCOCCCNC(=O)C1(C(F)F)CC(c2ccc3ncc(Br)cc3c2)=NO1 (centres unmarked) [Compound No. 623, 3-(3-bromoquinolin-6-yl)-5-(difluoromethyl)-N-(3-ethoxypropyl)-4,5-dihydro-1,2-oxazole-5-carboxamide]

Same assay, conditions: reversed phase HPLC column; HPLC reversed phase, pH 2.7, 0.1% formic acid in water / acetonitrile, linear gradient 10% to 95% acetonitrile; calibration with alkan-2-ones; read-out: log P (HCOOH)

chromatographic logP	SMILES
2.63	O/N=C(\Cl)c1ccc2ncc(I)cc2c1 [3-Iodo-N-hydroxyquinoline-6-carboximidoyl chloride]
2.08	O=Cc1ccc2ncc(Br)cc2c1 [3-bromoquinoline-6-carbaldehyde]
1.96	O=Cc1ccc2ncc(Cl)cc2c1 [3-chloroquinoline-6-carbaldehyde]

Test system: Septoria tritici
Assay: In vivo preventive test on Septoria tritici (leaf spot on wheat)
Details: 500 ppm; wheat plants sprayed 24 hours before contamination; grading 21 to 28 days after contamination vs control plants
Description: Wheat plants (“Scipion” variety), sown in starter cups on a 50/50 peat soil-pozzolana substrate and grown at 22° C. (12 h)/20° C. (12 h), are treated at the 1-leaf stage (10 cm height) by spraying with the active ingredient prepared as described above. Plants, used as controls, are treated with the mixture of acetone/tween/DMSO/water not containing the active material. After 24 hours, the plants are contaminated by spraying the leaves with an aqueous suspension of cryopreserved Septoria tritici spores (500 000 spores per ml). […] Grading (% of efficacy) is carried out 21 to 28 days after the contamination, in comparison with the control plants.

SMILES	% of efficacy (protection) [%]
CC(C)c1noc(C(C)NC(=O)C2(C)CC(c3ccc4ncc(Br)cc4c3)=NO2)n1 (centres unmarked) [compound 331]	83
C#Cc1cnc2ccc(C3=NOC(C)(C(=O)NC(C)c4sc(C)nc4C)C3)cc2c1 (centres unmarked) [compound 333]	98
CC1(C(=O)NCc2ccccc2)CC(c2ccc3ncc(Br)cc3c2)=NO1 (centres unmarked) [compound 91]	75
CCC(NC(=O)C1(C)CC(c2ccc3ncc(Br)cc3c2)=NO1)c1cn(CC)nc1C (centres unmarked) [compound 311]	100
CC(C)NC(=O)C1(CF)CC(c2ccc3ncc(Br)cc3c2)=NO1 (centres unmarked) [compound 76]	75
C#Cc1cnc2ccc(C3=NOC(C)(C(=O)NCc4cnn(-c5ccccc5)n4)C3)cc2c1 (centres unmarked) [compound 189]	71
C#CCCNC(=O)C1(C)CC(c2ccc3ncc(C#C)cc3c2)=NO1 (racemic) [compound 355]	100
C#Cc1cnc2ccc(C3=NOC(C)(C(=O)NC(C)C4CC4)C3)cc2c1 (centres unmarked) [compound 330]	100
C#Cc1cnc2ccc(C3=NOC(C)(C(=O)NCC4CCC(=O)N4C)C3)cc2c1 (centres unmarked) [compound 213]	97
C#Cc1cnc2ccc(C3=NOC(C)(C(=O)NCC4CCC(C(F)(F)F)CC4)C3)cc2c1 (centres unmarked) [compound 121]	75
CC(NC(=O)C1(C)CC(c2ccc3ncc(Br)cc3c2)=NO1)c1ccsc1 (centres unmarked) [compound 295]	80
CC1(C(=O)NC(C)(C#N)C2CC2)CC(c2ccc3ncc(Br)cc3c2)=NO1 (centres unmarked) [compound 301]	80
CC(O)C1(C(=O)NCC2COC(C)(C)O2)CC(c2ccc3ncc(Br)cc3c2)=NO1 (mixture of isomers) [compound 555]	71
Cc1cnc(CNC(=O)C2(C(C)O)CC(c3ccc4ncc(Br)cc4c3)=NO2)cn1 (mixture of isomers) [compound 562]	86
